Each molecule was assayed on Human valve interstitial cells (VIC) (assay: Calcification inhibition in human valve interstitial cells (VIC); staining followed by spectroscopy). Conditions: VIC isolated from human aortic valves; calcification induced; test substance contacted during or after induced calcification; degree of calcification by staining and spectroscopy (FIG. 2, FIG. 3).
Format: cell-based
Protocol: Human valve interstitial cells (VIC) are isolated from human aortic valves harvested during surgery for use in calcification inhibitor testing. After isolation, calcification is induced in the cells. The activity of potential inhibitors is assayed by contacting the VIC cells with the test substance during or after the induced calcification. The degree of calcification is measured by staining followed by spectroscopy. FIG. 1 provides photomicrographs of control cells (no induced calcification, left panel), cells where calcification is induced (middle panel), and calcification in the presence of an inhibitor (right panel).

Row | SMILES | inhibition of calcification
1 | COc1ccnc(C[S+]([O-])c2nc3cc(OC(F)F)ccc3[nH]2)c1OC (stereo not shown) [pantoprazole] | inhibition of calcification
2 | Cc1c(OCC(F)(F)F)ccnc1C[S+]([O-])c1nc2ccccc2[nH]1 (stereo not shown) [lansoprazole] | inhibition of calcification
3 | COc1ccc2[nH]c([S+]([O-])Cc3ncc(C)c(OC)c3C)nc2c1 (stereo not shown) [omeprazole] | inhibition of calcification
4 | COCCCOc1ccnc(C[S+]([O-])c2nc3ccccc3[nH]2)c1C (stereo not shown) [Rabeprazole, rabeprazole] | inhibition of calcification

Source: patent US20260097026A1, “INHIBITION OF AORTIC VALVE CALCIFICATION” (priority 2022, published 2026)
